{"source": "patent EP4282522A1", "about": "“SILICA-SUPPORTED IONIC LIQUIDS FOR THE REMOVAL OF C[…] AQUEOUS SAMPLES” (Universidade de Aveiro, priority 2022, dated 2023)", "system": "Danio rerio embryos", "conditions": "96 h exposure, cyclophosphamide solution 1306 mg L^-1", "key": {"[1]": {"conditions": "materials: maintenance water after 1.5 h contact with the material"}}, "method": "Aiming to identify the ability of this material to decrease and/or remove the toxicity of the water samples treated, an ecotoxicity test was carried out resorting to assays with Danio rerio embryos. […] Assays with embryos of D. rerio were performed according to the Organisation for Economic Co-operation and Development (OECD) guideline 236 on Fish Embryo Acute Toxicity (FET) Test (OECD, 2013), with small adaptations.\nZebrafish embryos were exposed for 96 h, at a temperature of 26 ± 1 °C and a 16:8h light/dark photoperiod, and observations were made at each 24 h (i.e., 24, 48, 72, and 96 hours) with the help of a stereomicroscope (Zoom-SMZ 1500, Nikon Corporation).\nIn an embodiment, besides the mortality endpoint (that included coagulated eggs, arrested development, or lack of heartbeat), the sublethal endpoints concerning the hatching rate, final body length, and malformations (such as tail and skeletal malformations, oedemas, and delayed development) (Lammer et al. 2009; \"Is the fish embryo toxicity test (FET) with the zebrafish (Danio rerio) a potential alternative for the fish acute toxicity test?\" Comp. Biochem. Physiol. Part - C: Toxicol. Pharmacol. 149 (2):196 - 209) were also evaluated. […] Mortality, hatching rate, and percentage of abnormalities were expressed considering the total number of embryos exposed to the different treatments, while the final body length endpoint was evaluated concerning the number of alive larvae at the end of the assay.", "data": [{"smiles": "O=P1(N(CCCl)CCCl)NCCCO1", "note": "(stereo not drawn) [cyclophosphamide]", "values": [{"measurement": "final body length of zebrafish larvae (average length)", "setting": "control 5.4 ± 0.2 cm", "value": "4.4 ± 0.4", "unit": "cm"}, {"measurement": "malformations", "setting": "[1]", "value": 52, "unit": "%"}, {"measurement": "mortality", "setting": "[1]", "value": 20, "unit": "%"}]}]}
